Laboratory results reported in ChEMBL document CHEMBL2424520, “Screening and evaluation of small organic molecules as ClpB inhibitors and potential antimicrobials” (J Med Chem, 2013).
Activity calls are given as the source filed them. The calls are words filed in the database; no cut-off is given here.

Columns and labels:
[1] = Binding affinity to CLPB (unknown origin) expressed in Escherichia coli MC4100 assessed as change in melting temperature at 100 to 200 uM after 30 mins by DSF analysis in presence of ATPgammaS
[2] = Inhibition of DNAK (unknown origin) assessed as reactivation of luciferase aggregates after 2 hrs
[3] = Activation of CLPB (unknown origin) expressed in Escherichia coli MC4100 at 1 to 100 uM by spectrophotometric analysis
[4] = Binding affinity to CLPB (unknown origin) expressed in Escherichia coli MC4100 assessed as change in melting temperature at 100 to 200 uM after 30 mins by DSF analysis in presence of ADP
[5] = Inhibition of DNAK/CLPB (unknown origin) assessed as reactivation of malate dehydrogenase aggregates after 2 hrs
[6] = Binding affinity to CLPB (unknown origin) expressed in Escherichia coli MC4100 assessed as change in melting temperature at 100 to 200 uM after 30 mins by DSF analysis in presence of ATP
[7] = Activation of CLPB (unknown origin) expressed in Escherichia coli MC4100 using alpha-casein as substrate at 1 to 100 uM by spectrophotometric analysis
[8] = Binding affinity to CLPB (unknown origin) expressed in Escherichia coli MC4100 assessed as change in melting temperature at 100 to 200 uM after 30 mins by DSF analysis
[9] = Effect on ATPase activity of CLPB (unknown origin) expressed in Escherichia coli MC4100 using alpha-casein as substrate at 1 to 100 uM by spectrophotometric analysis
[10] = Effect on ATPase activity of CLPB (unknown origin) expressed in Escherichia coli MC4100 at 1 to 100 uM by spectrophotometric analysis
[11] = Inhibition of DNAK/CLPB (unknown origin) assessed as reactivation of malate dehydrogenase aggregates after 2 hrs in presence of Tween 80
[12] = Inhibition of DNAK (unknown origin) assessed as reactivation of luciferase aggregates after 2 hrs in presence of Tween 80

SMILES	ΔTm [1]	IC50 [2]	Activity [3]	ΔTm [4]	IC50 [5]	ΔTm [6]	Activity [7]	ΔTm [8]	Activity [9]	Activity [10]	IC50 [11]	IC50 [12]
C(=C\C=C\Nc1ccccc1)/C=C/Nc1ccccc1	13.3 °C	100 µM	Active	12.3 °C	> 100 µM	11.9 °C	Active	17.5 °C				
CC(C)[C@H](C(=O)O)N1C(=O)/C(=C2/C(=O)Nc3ccc(Br)cc32)SC1=S	19.3 °C			19.9 °C	> 100 µM	22.1 °C		24.2 °C	inactive	inactive		
O=C(Nc1cccc([N+](=O)[O-])c1)c1sc2cccc(Cl)c2c1Cl	4.2 °C	> 100 µM		5.2 °C	90 µM	1.8 °C		0.8 °C	inactive	inactive		
COCCCN1C(=O)C(=C2C(=O)Nc3ccc(Br)cc32)SC1=S	14.3 °C			9.4 °C	> 100 µM	13.1 °C		8.4 °C	inactive	inactive		

The next compounds have a lower IC50 [5] than those just listed; values first:

ΔTm [1]	IC50 [2]	Activity [3]	ΔTm [4]	IC50 [5]	ΔTm [6]	Activity [7]	ΔTm [8]	Activity [9]	Activity [10]	IC50 [11]	IC50 [12]	SMILES
7.1 °C	> 100 µM	Active	0.7 °C	7.5 µM	1.2 °C	Active	1 °C			11 µM	> 100 µM	COc1cc(/C=C2/C(=O)NN(c3ccc(Cl)cc3)C2=O)ccc1OCc1ccc(F)cc1
14.6 °C	85 µM	Active	-0.7 °C	30 µM	-0.2 °C	Active	18.1 °C			15 µM	50 µM	O=C1Nc2ccc(Br)cc2/C1=C1/SC(=O)N(c2ccccc2)C1=O
